Measured values taken from paper PMC9346089 (The FEBS journal, 2022).

Assays:
Details in all cases: 5 uM vitamin K epoxide in medium; HEK293 VKORC1/VKORL1 knockout
[1] = test system: S3-TM5/Trx; test: cell-based gamma-carboxylation reporter; set-up: species or system Synechococcus sp. JA-2-3B'a(2-13)
[2] = test system: S3; test: cell-based gamma-carboxylation reporter; set-up: species or system Synechococcus sp. JA-2-3B'a(2-13)
[3] = test system: M1
[4] = test system: M2

## CC(=O)CC(c1ccccc1)c1c(O)c2ccccc2oc1=O (stereo not shown) [warfarin]
[1]
  IC50: 1.11 µM
[2]
  IC50: 0.19 µM
[3]
  IC50: 0.4 µM
[4]
  IC50: 1.87 µM
